Our source for the GI50 and TGI values is PubChem BioAssay (NCI).

Test systems include NCI/ADR-RES ovarian; UO-31 renal; SN12C renal; M14 melanoma; K-562 leukemia; MCF7 breast; TK-10 renal; MOLT-4 leukemia; UACC-62 melanoma; T-47D breast.
What all share (test): NCI tumour cell line growth inhibition, 48 h

Structures are written as SMILES.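 Dose response: 5 concentrations. Exposure: 48 h. Format: 96-well plates. Endpoint: linear interpolation; highest concentration if not reached. GI50 = concentration required for 50% inhibition of growth. TGI: concentration producing complete growth inhibition.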

For the compound `O=C(Nc1ccc(-n2ccc3c(NC(=O)c4ccccc4)nccc32)cc1)c1ccc(N2CCOCC2)c(C(F)(F)F)c1`, the GI50 in the assay on NCI/ADR-RES ovarian was 0.198 µM; in the assay with UO-31 renal, 0.557 µM; with SN12C renal it was 3.93 µM; in the assay with M14 melanoma, 0.43 µM; with K-562 leukemia, 0.0429 µM; in the assay on MCF7 breast, 0.0734 µM. The GI50 in the assay on TK-10 renal is 0.449 µM; in the assay on MOLT-4 leukemia, 0.0421 µM; in the assay with UACC-62 melanoma, 0.331 µM; with T-47D breast it was 2.65 µM. Moreover, the TGI with NCI/ADR-RES ovarian is 29.9 µM; with UO-31 renal it was 19.5 µM; in the assay on SN12C renal it was > 100 µM; with M14 melanoma, > 68.2 µM; with K-562 leukemia it was > 100 µM; in the assay on MCF7 breast it was 25 µM. Also, the TGI was 26.1 µM with TK-10 renal, > 100 µM in the assay on MOLT-4 leukemia, 21.7 µM with UACC-62 melanoma and > 41.1 µM with T-47D breast.
For the compound `C#CCN(Cc1nc2cc(C(F)(F)F)ccc2nc1-c1ccccc1)c1ccc(F)cc1`, the GI50 is 29.1 µM with NCI/ADR-RES ovarian; 31.2 µM in the assay on UO-31 renal; 30.8 µM in the assay on SN12C renal; 56.4 µM with M14 melanoma; 19.5 µM in the assay on K-562 leukemia; 23.2 µM in the assay with MCF7 breast. In addition, the GI50 with TK-10 renal is 19.2 µM; in the assay on MOLT-4 leukemia it was 36.5 µM; in the assay on UACC-62 melanoma it was 25.5 µM; in the assay with T-47D breast, 20.8 µM. For the same compound, the TGI is 84.7 µM in the assay with NCI/ADR-RES ovarian; > 100 µM with UO-31 renal; 96 µM in the assay on SN12C renal; > 100 µM in the assay with M14 melanoma; > 100 µM with K-562 leukemia; > 100 µM with MCF7 breast. Besides, the TGI is 59 µM in the assay with TK-10 renal, > 100 µM with MOLT-4 leukemia, > 100 µM with UACC-62 melanoma and > 100 µM in the assay with T-47D breast.
For the compound `COc1ccc(-c2cc(-c3ccc(Cl)cc3)nc(SCCCCCCC(=O)NO)n2)cc1`, the GI50 in the assay with NCI/ADR-RES ovarian was 0.876 µM; in the assay on UO-31 renal, 0.758 µM; with SN12C renal, 1.74 µM; in the assay with M14 melanoma, 1.26 µM; in the assay with K-562 leukemia, 1.72 µM; in the assay on MCF7 breast, 1.73 µM. Besides, the GI50 in the assay on TK-10 renal is 2.12 µM; in the assay with MOLT-4 leukemia it was 0.79 µM; in the assay on UACC-62 melanoma, 1.13 µM; with T-47D breast it was 1.42 µM. In addition, the TGI in the assay with NCI/ADR-RES ovarian was 3.83 µM; with UO-31 renal it was 3.05 µM; with SN12C renal, 8.85 µM; in the assay on M14 melanoma it was 4.74 µM; with K-562 leukemia, 8.86 µM; with MCF7 breast, > 50 µM. Besides, the TGI in the assay with TK-10 renal was > 50 µM; in the assay with MOLT-4 leukemia it was 2.93 µM; with UACC-62 melanoma, 3.51 µM; in the assay on T-47D breast, > 50 µM.
`COc1ccccc1N1CCN(CCCOc2ccc(C(=O)/C=C3/C(=O)Nc4ccccc43)cc2)CC1`: the GI50 with NCI/ADR-RES ovarian was 9.53 µM; in the assay on UO-31 renal, 16.3 µM; in the assay on SN12C renal, 19.9 µM; in the assay on M14 melanoma, 11 µM; in the assay on K-562 leukemia, 3.51 µM; with MCF7 breast, 7.17 µM. Also, the GI50 with TK-10 renal was 12.3 µM; in the assay on MOLT-4 leukemia, 1.69 µM; in the assay with UACC-62 melanoma it was 11.9 µM; with T-47D breast, 4.73 µM. Also, the TGI is 40.9 µM with NCI/ADR-RES ovarian; > 100 µM in the assay on UO-31 renal; > 100 µM in the assay with SN12C renal; 27 µM in the assay on M14 melanoma; > 34.8 µM in the assay on K-562 leukemia; 31.8 µM in the assay on MCF7 breast. Besides, the TGI in the assay with TK-10 renal is > 67.7 µM; with MOLT-4 leukemia, 17.5 µM; in the assay with UACC-62 melanoma it was 28.4 µM; in the assay on T-47D breast, > 73 µM.
With `Cc1ccccc1C[P+](c1ccccc1)(c1ccccc1)c1ccccc1`, the GI50 is > 100 µM in the assay on NCI/ADR-RES ovarian; 40.5 µM in the assay on UO-31 renal; 2.42 µM with SN12C renal; 0.786 µM in the assay with K-562 leukemia; 0.649 µM in the assay with MCF7 breast; 1.2 µM in the assay on TK-10 renal. The GI50 is 4.9 µM in the assay on MOLT-4 leukemia, 0.757 µM in the assay on UACC-62 melanoma and 0.294 µM with T-47D breast. For the same compound, the TGI with NCI/ADR-RES ovarian was > 100 µM; in the assay on UO-31 renal, > 100 µM; with SN12C renal, > 100 µM; in the assay on K-562 leukemia it was > 100 µM; in the assay with MCF7 breast, 39.6 µM; with TK-10 renal, 30.2 µM. For the same compound, the TGI with MOLT-4 leukemia is > 100 µM; with UACC-62 melanoma, 31.6 µM; in the assay on T-47D breast, 14.9 µM.
Regarding `CCN(CC)CCOc1ccc(Cc2ccccc2)cc1`, the GI50 is 26.2 µM in the assay on NCI/ADR-RES ovarian; 18.4 µM in the assay with UO-31 renal; 48.8 µM in the assay with SN12C renal; 17.3 µM with M14 melanoma; 27.6 µM with MCF7 breast; 23.3 µM in the assay with TK-10 renal. Also, the figures for the GI50 with UACC-62 melanoma and in the assay with T-47D breast were 30.8 µM and 25.5 µM, respectively. Moreover, the TGI was > 100 µM with NCI/ADR-RES ovarian; > 100 µM with UO-31 renal; > 100 µM with SN12C renal; 34.6 µM in the assay with M14 melanoma; > 100 µM with MCF7 breast; 92.9 µM in the assay on TK-10 renal. The TGI with UACC-62 melanoma and with T-47D breast was > 100 µM in each case.
In the case of `Clc1nc(-c2ccccc2)nc(Cl)c1Cl`, the TGI was 61.3 µM in the assay with NCI/ADR-RES ovarian; > 57.5 µM with UO-31 renal; 31.4 µM in the assay on SN12C renal; 19.7 µM in the assay on M14 melanoma; > 43.2 µM in the assay with K-562 leukemia; 24.5 µM with MCF7 breast. The TGI in the assay with TK-10 renal stood at 42.6 µM; in the assay with MOLT-4 leukemia it was 15 µM; in the assay with UACC-62 melanoma, 27.8 µM; in the assay with T-47D breast, 28.5 µM.
Regarding `NC(N)=NC(N)=Nc1ccc(S(N)(=O)=O)cc1`, the TGI in the assay with NCI/ADR-RES ovarian, in the assay with UO-31 renal, in the assay with SN12C renal, with M14 melanoma, with K-562 leukemia and in the assay on MCF7 breast was > 100 µM each time. Further, the TGI in the assay on TK-10 renal, with MOLT-4 leukemia, in the assay on UACC-62 melanoma and in the assay on T-47D breast was > 100 µM each time.
